In patent US20140221301A1, “COMBINATION TREATMENT FOR CANCER” (priority 2011, published 2014):

What was measured:
TEX cells = experiment: ROS generation (DCF-DA, DHE) in TEX cells; assay type: cell-based, human; settings: time-points up to 24 hours
Description: FIG. 4. […] (A) Cells from TEX, OCI-AML2 and two primary AML patients were treated with increasing concentrations (2.5 μM and 5 μM) of tigecycline for 36 and 48 hours of tigecycline. Total proteins were extracted and analyzed by western blotting for Cox-1, Cox-2, Cox-4, grp78, XIAP, actin and tubulin. (B) TEX and AML patient cells were treated with increasing concentrations (2.5 μM and 5 μM) of tigecycline. Cox-1, Cox-2, and Cox-4 mRNA expression relative 18S was determined by quantitative RT-PCR. Data is shown as mean±SD. (C) TEX cells were treated with increasing concentrations of tigecycline and chloramphenicol (CAP) for 72 hours. Complex I, II and IV enzyme activity relative to citrate synthase activity was determined as described in materials and methods. (D) Cells from TEX, primary AML patients, and normal donors were treated with increasing concentrations of tigecycline. Mitochondrial membrane potential (ΔΨ) was determined by staining cells with JC-1 dye, and flow cytometry analysis (Red/Green ratio). Reactive oxygen species generation (ROS) was determined by staining with h2-DCFDA and Dihydroethidium (DHE).
A byproduct of the mitochondrial enzyme activities of the electron transport chain is the generation of reactive oxygen species (ROS). […] Therefore, the role of tigecycline on ROS generation in leukemia cells by analyzing hydrogen peroxide ions (H2O2) using a dichlorofluorescein dye (DCF-DA), and superoxide anions using dihydroethidium (DHE) was examined.

[1] = test system: acute myeloid leukemia (AML); settings: 13 patients treated; cited from earlier work

For CC[C@H]1/C=C/C=C/C[C@@H](C)[C@H](O)[C@@](C)(O)C(=O)[C@@H](C)[C@H](O)[C@@H](C)C(=O)[C@@H](C)[C@H](O)[C@@H](C)/C=C/C(=O)O[C@@H]2[C@H](C)[C@H](CC1)O[C@]1(CC[C@H](C)[C@H](C[C@@H](C)O)O1)[C@H]2C [oligomycin], the ROS generation (TEX cells) was “rapid increases”.
For NC(=O)c1ncn([C@@H]2O[C@H](CO)[C@@H](O)[C@H]2O)n1 [ribavirin], the complete remission [1] is listed as 1 and the partial remissions [1] is listed as 2.
In the case of C=C(C)[C@H]1Cc2c(ccc3c2O[C@@H]2COc4cc(OC)c(OC)cc4[C@@H]2C3=O)O1 [rotenone], the ROS generation (TEX cells) is reported as “rapid increases”.
In the case of antimycin, the ROS generation (TEX cells) is reported as “rapid increases”.
